In this experiment the target is T1, 3-hydroxy-3-methylglutaryl coenzyme A reductase (Rattus norvegicus, UniProt P51639).
T1 sequence (P51639 1-887): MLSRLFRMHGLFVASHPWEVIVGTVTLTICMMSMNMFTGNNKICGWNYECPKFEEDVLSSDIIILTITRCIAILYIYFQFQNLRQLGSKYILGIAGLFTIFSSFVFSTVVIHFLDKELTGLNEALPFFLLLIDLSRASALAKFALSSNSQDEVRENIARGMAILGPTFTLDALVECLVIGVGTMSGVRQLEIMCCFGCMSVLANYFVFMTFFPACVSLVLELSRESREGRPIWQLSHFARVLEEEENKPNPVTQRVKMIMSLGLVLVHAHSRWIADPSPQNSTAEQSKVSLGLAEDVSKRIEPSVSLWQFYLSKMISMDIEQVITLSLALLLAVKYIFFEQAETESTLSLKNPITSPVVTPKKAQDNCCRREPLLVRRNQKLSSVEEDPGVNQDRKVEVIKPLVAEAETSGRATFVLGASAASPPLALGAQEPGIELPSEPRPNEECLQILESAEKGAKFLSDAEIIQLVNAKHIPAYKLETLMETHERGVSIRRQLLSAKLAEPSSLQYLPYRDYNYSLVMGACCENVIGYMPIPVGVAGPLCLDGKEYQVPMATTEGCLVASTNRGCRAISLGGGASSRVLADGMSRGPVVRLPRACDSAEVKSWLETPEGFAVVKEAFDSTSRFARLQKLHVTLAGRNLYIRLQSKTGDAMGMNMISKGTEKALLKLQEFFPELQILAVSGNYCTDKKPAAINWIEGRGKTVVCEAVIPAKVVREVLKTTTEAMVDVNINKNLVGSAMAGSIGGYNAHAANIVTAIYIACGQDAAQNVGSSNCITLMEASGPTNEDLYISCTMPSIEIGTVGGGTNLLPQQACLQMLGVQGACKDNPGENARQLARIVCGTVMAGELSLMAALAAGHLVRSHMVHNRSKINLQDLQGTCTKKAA
The experiment in a line: Method A: in vitro enzyme inhibition by the method of Knauss et al. The experiment is classed as biochemical. From the text: The inhibitory activity of these compounds for the biosynthesis of cholesterol has been measured by two methods. The experimental method A has been realized in vitro by the method of H. J. Knauss, et al., J. Biol. Chem., 234, 2835 (1959) and the activity was expressed as the molar concentration IC50(M) necessary for the inhibition of 50% of the enzymatic activity. The experimental method B was the method of A. A. Kandutsch, et al., J. Biol. Chem., 248, 8403 (1973) for measuring the quantity of ^14C-cholesterol biosynthesis from acetic acid-^14C in mouse L cells. The activity is expressed for inhibition of 50% of the biosynthesis of cholesterol.

The values that follow come from patent publication EP0024348A1, “Substituted 6-Phenethyl-and phenylethenyl-3,4,5,6-tetrahydro-4-hydroxytetraydropyran-2-ones in the4-R trans stereoisomeric forms and the corresponding dihydroxy acids, process for preparing and pharmaceutical composition comprising them” (Merck & Co., Inc., priority 1979, dated 1981).

The term IC50 denotes the concentration that gives 50% inhibition.

Each structure is given as a SMILES string. Where a name gives a salt, the structure may show the parent alone.

Consider `O=C1C[C@H](O)C[C@@H](CCc2c(Cl)cc(Cl)cc2OCc2ccccc2)O1` (single isomer, unassigned) [Example 14, (+)-Trans-6-[2-(2,4-dichloro-6-phenylmethoxyphenyl)ethyl]-3,4,5,6-tetrahydro-4-hydroxy-2H-pyran-2-one], for which half-maximal inhibition (test by method A) (IC50) was put at 68 nM.

Turning to `O=C(O)C[C@H](O)C[C@H](O)/C=C/c1c(Cl)cc(Cl)cc1-c1ccc(F)cc1` (single isomer, unassigned) [Example 38, (+)-(E)-(3R*, 5S*)-7-(3,5-dichloro-4'-fluoro[1,1'-biphenyl]-2y1)-3,5-dihydroxy-6-heptenoic acid, ammonium salt], where the note is “both tested as the sodium salts of their corresponding hydroxy acid forms”, the “potency compared with compactin” value is “greater than that of compactin”. The IC50 (tested as the sodium salts of their corresponding hydroxy acid forms, method not restated) was roughly 2.8 nM.
